# Assay results: PubChem BioAssay AID1963442 (Molecular Pharmacology Branch, DTP, NCI, 2024)
# Tested on: MPNST complex spheroid with HUVEC/MSC, growth, % test/control
# Assay: Anticancer human tumor MPNST cell line growth inhibition [Asc];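 note: compounds left on spheroids for seven days before reading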
# Conditions: for IC50: curve of first compound; for viability, T/C: stronger effect = lower value
# Procedure, shortened: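 Tumor cells were grown as complex spheroids with human endothelial cells (HUVEC) and human mesenchymal stem cells as stroma. Agents were tested alone and in combination, in half-log steps down from the clinical Cmax, or from 10 microM where Cmax was unknown.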
# [1] = second compound 0.1 µM, first compound 0.0316 µM
# [2] = second compound 0.1 µM, first compound 0.1 µM
# [3] = second compound 0.1 µM, first compound 0.316 µM
# [4] = second compound 0.1 µM, first compound 1 µM
# [5] = second compound 0.316 µM, first compound 0.0316 µM
# [6] = second compound 0.316 µM, first compound 0.1 µM
# [7] = second compound 0.316 µM, first compound 0.316 µM
# [8] = second compound 0.316 µM, first compound 1 µM
# [9] = second compound 1 µM, first compound 0.0316 µM
# [10] = second compound 1 µM, first compound 0.1 µM
# [11] = second compound 1 µM, first compound 0.316 µM
# [12] = second compound 1 µM, first compound 1 µM
# [13] = second compound 3.16 µM, first compound 0.0316 µM
# [14] = second compound 3.16 µM, first compound 0.1 µM
# [15] = second compound 3.16 µM, first compound 0.316 µM
# [16] = second compound 3.16 µM, first compound 1 µM
# [17] = second compound 10 µM, first compound 0.0316 µM
# [18] = second compound 10 µM, first compound 0.1 µM
# [19] = second compound 10 µM, first compound 0.316 µM
# [20] = second compound 10 µM, first compound 1 µM
smiles,measurement,setting,value
C#Cc1c(F)ccc2cc(O)cc(-c3ncc4c(N5CC6CCC(C5)N6)nc(OCC56CCCN5CC(F)C6)nc4c3F)c12 (stereo not given) + Cc1c(S(C)(=O)=O)c(-c2cc(F)cc(N3CCN(c4ccc(NS(=O)(=O)c5ccc(NC(CCN6CCC(C(=O)OCCCP(=O)(O)O)CC6)CSc6ccccc6)c(S(=O)(=O)C(F)(F)F)c5)cc4)CC3)c2)c(-c2ccc(Cl)cc2)n1C(C)C,IC50,second compound 0.1 µM,> 10 µM
same,IC50,second compound 0.316 µM,> 10 µM
same,IC50,second compound 1 µM,> 10 µM
same,IC50,second compound 3.16 µM,> 10 µM
same,IC50,second compound 10 µM,> 10 µM
same,"viability, T/C",[1],99.2%
same,"viability, T/C",[2],104%
same,"viability, T/C",[3],92.9%
same,"viability, T/C",[4],103%
same,"viability, T/C","second compound 0.1 µM, first compound 3.16 µM",99.9%
same,"viability, T/C","second compound 0.1 µM, first compound 10 µM",101%
same,"viability, T/C",[5],93.4%
same,"viability, T/C",[6],105%
same,"viability, T/C",[7],110%
same,"viability, T/C",[8],94.7%
same,"viability, T/C","second compound 0.316 µM, first compound 3.16 µM",91%
same,"viability, T/C","second compound 0.316 µM, first compound 10 µM",96.5%
same,"viability, T/C",[9],97%
same,"viability, T/C",[10],99.2%
same,"viability, T/C",[11],101%
same,"viability, T/C",[12],95.4%
same,"viability, T/C","second compound 1 µM, first compound 3.16 µM",93.4%
same,"viability, T/C","second compound 1 µM, first compound 10 µM",77%
same,"viability, T/C",[13],80.5%
same,"viability, T/C",[14],91.2%
same,"viability, T/C",[15],117%
same,"viability, T/C",[16],101%
same,"viability, T/C","second compound 3.16 µM, first compound 3.16 µM",78.2%
same,"viability, T/C","second compound 3.16 µM, first compound 10 µM",71.8%
same,"viability, T/C",[17],121%
same,"viability, T/C",[18],135%
same,"viability, T/C",[19],118%
same,"viability, T/C",[20],158%
same,"viability, T/C","second compound 10 µM, first compound 3.16 µM",108%
same,"viability, T/C","second compound 10 µM, first compound 10 µM",124%
CNC(C)C(=O)NC1CN(S(=O)(=O)c2cccc(S(=O)(=O)N3CCC4CCC(C(=O)NC(c5ccccc5)c5ccccc5)N4C(=O)C(NC(=O)C(C)NC)C3)c2)CCC2CCC(C(=O)NC(c3ccccc3)c3ccccc3)N2C1=O (stereo not given) + Cc1c(S(C)(=O)=O)c(-c2cc(F)cc(N3CCN(c4ccc(NS(=O)(=O)c5ccc(NC(CCN6CCC(C(=O)OCCCP(=O)(O)O)CC6)CSc6ccccc6)c(S(=O)(=O)C(F)(F)F)c5)cc4)CC3)c2)c(-c2ccc(Cl)cc2)n1C(C)C,IC50,second compound 0.1 µM,> 1 µM
same,IC50,second compound 0.316 µM,> 1 µM
same,IC50,second compound 1 µM,> 1 µM
same,IC50,second compound 3.16 µM,> 1 µM
same,IC50,second compound 10 µM,> 1 µM
same,"viability, T/C","second compound 0.1 µM, first compound 0.00316 µM",121%
same,"viability, T/C","second compound 0.1 µM, first compound 0.01 µM",143%
same,"viability, T/C",[1],162%
same,"viability, T/C",[2],165%
same,"viability, T/C",[3],126%
same,"viability, T/C",[4],108%
same,"viability, T/C","second compound 0.316 µM, first compound 0.00316 µM",139%
same,"viability, T/C","second compound 0.316 µM, first compound 0.01 µM",150%
same,"viability, T/C",[5],127%
same,"viability, T/C",[6],149%
same,"viability, T/C",[7],121%
same,"viability, T/C",[8],135%
same,"viability, T/C","second compound 1 µM, first compound 0.00316 µM",145%
same,"viability, T/C","second compound 1 µM, first compound 0.01 µM",150%
same,"viability, T/C",[9],152%
same,"viability, T/C",[10],147%
same,"viability, T/C",[11],194%
same,"viability, T/C",[12],160%
same,"viability, T/C","second compound 3.16 µM, first compound 0.00316 µM",132%
same,"viability, T/C","second compound 3.16 µM, first compound 0.01 µM",185%
same,"viability, T/C",[13],171%
same,"viability, T/C",[14],141%
same,"viability, T/C",[15],151%
same,"viability, T/C",[16],159%
same,"viability, T/C","second compound 10 µM, first compound 0.00316 µM",143%
same,"viability, T/C","second compound 10 µM, first compound 0.01 µM",200%
same,"viability, T/C",[17],216%
same,"viability, T/C",[18],159%
same,"viability, T/C",[19],185%
same,"viability, T/C",[20],179%
Cc1nc(N2CCC3(CC2)COC(C)C3N)c(CO)nc1Sc1ccnc(N)c1Cl (stereo not given) + Cc1c(S(C)(=O)=O)c(-c2cc(F)cc(N3CCN(c4ccc(NS(=O)(=O)c5ccc(NC(CCN6CCC(C(=O)OCCCP(=O)(O)O)CC6)CSc6ccccc6)c(S(=O)(=O)C(F)(F)F)c5)cc4)CC3)c2)c(-c2ccc(Cl)cc2)n1C(C)C,IC50,second compound 0.1 µM,> 3 µM
same,IC50,second compound 0.316 µM,> 3 µM
same,IC50,second compound 1 µM,> 3 µM
same,IC50,second compound 3.16 µM,> 3 µM
same,IC50,second compound 10 µM,> 3 µM
same,"viability, T/C","second compound 0.1 µM, first compound 0.00949 µM",117%
same,"viability, T/C","second compound 0.1 µM, first compound 0.03 µM",152%
same,"viability, T/C","second compound 0.1 µM, first compound 0.0949 µM",143%
same,"viability, T/C","second compound 0.1 µM, first compound 0.3 µM",121%
same,"viability, T/C","second compound 0.1 µM, first compound 0.949 µM",104%
same,"viability, T/C","second compound 0.1 µM, first compound 3 µM",112%
same,"viability, T/C","second compound 0.316 µM, first compound 0.00949 µM",130%
same,"viability, T/C","second compound 0.316 µM, first compound 0.03 µM",136%
same,"viability, T/C","second compound 0.316 µM, first compound 0.0949 µM",157%
same,"viability, T/C","second compound 0.316 µM, first compound 0.3 µM",125%
same,"viability, T/C","second compound 0.316 µM, first compound 0.949 µM",117%
same,"viability, T/C","second compound 0.316 µM, first compound 3 µM",79.5%
same,"viability, T/C","second compound 1 µM, first compound 0.00949 µM",121%
same,"viability, T/C","second compound 1 µM, first compound 0.03 µM",148%
same,"viability, T/C","second compound 1 µM, first compound 0.0949 µM",126%
same,"viability, T/C","second compound 1 µM, first compound 0.3 µM",135%
same,"viability, T/C","second compound 1 µM, first compound 0.949 µM",96.2%
same,"viability, T/C","second compound 1 µM, first compound 3 µM",93.6%
same,"viability, T/C","second compound 3.16 µM, first compound 0.00949 µM",136%
same,"viability, T/C","second compound 3.16 µM, first compound 0.03 µM",141%
same,"viability, T/C","second compound 3.16 µM, first compound 0.0949 µM",164%
same,"viability, T/C","second compound 3.16 µM, first compound 0.3 µM",108%
same,"viability, T/C","second compound 3.16 µM, first compound 0.949 µM",117%
same,"viability, T/C","second compound 3.16 µM, first compound 3 µM",88.3%
same,"viability, T/C","second compound 10 µM, first compound 0.00949 µM",175%
same,"viability, T/C","second compound 10 µM, first compound 0.03 µM",159%
same,"viability, T/C","second compound 10 µM, first compound 0.0949 µM",153%
same,"viability, T/C","second compound 10 µM, first compound 0.3 µM",108%
same,"viability, T/C","second compound 10 µM, first compound 0.949 µM",125%
same,"viability, T/C","second compound 10 µM, first compound 3 µM",94.4%
